Assays:
Assay type in all cases: in vivo, mouse
[1] = system: mesenteric arteries; assay: Myograph: contractile responses to phenylephrine of mesenteric arteries from losartan-treated mice
Description: (§1) A 129S7AB2.2 genomic BAC clone (bMQ-446B20; Sanger) was used to generate the targeting vector. Recombination in SW102 cell was employed to replace the miR-143 to miR-145 genomic region by a galK cassette (45) that was amplified by the primers flanking premiR-143 to pre-miR-145 ([…] GCggcgcgcctcagcactgtcctgctcctt; […] ACggcgcgcctgttgacaattaatcatcggca). The genomic sequence was inserted via gap repair into a pKO targeting vector containing a DTA expression cassette and 450 bp homology arms for BAC recombination resulting in a vector containing 6.5 kb of sequence 5′ of miR-143 and 5.5 kb 3′ of miR-145 from genomic sequence […] to […]. The AscI restriction sites flanking the galK cassette were used to replace the galK by a floxed IRESIacZ-NeoR cassette. The vector was electroporated into MPI II ES cells (46) and recombinant clones were identified. Recombinant ES cells were injected into blastocysts and transferred to pseudopregnant mice. Chimeric animals were backcrossed to C57BL/6 mice. Heterozygous animals were used to obtain WT and KO littermates. ES cells and mice were genotyped using an EcoRV restriction digest and a 5′ outside probe amplified from genomic DNA using oligonucleotides ([…]; […]). For chronic ACE or AT1 inhibition drinking water of mice was supplemented with 600 μg/ml captopril (Sigma#C-8856) and 100 µg/ml losartan (Fluka#61188) for at least 3 weeks. The experiments were performed in accordance with German legislation on protection of animals and were approved by the local governmental animal care committee (Regierungspraesidium Darmstadt).
Isolated segments of femoral and mesenteric arteries were examined in an isometric microvessel myograph as described previously (52). Mounted vessels were stimulated with 80 mM K+, 30 nM angiotensin II or increasing concentrations of phenylephrine (100 nM to 10 μM). The pCa-force relationships (13, 14) were obtained in permeabilized mouse femoral artery segments. In brief, arteries were permeabilized for 30 minutes using 0.5% Triton X-100 in relaxation solution. The latter consisted of (in mM): EGTA 1, Pipes 30, Na2ATP 5.16, MgCl2 7.31, sodium creatine phosphate 10 and potassium gluconate 74.1. For contraction curves the buffer was supplemented with 160 U/ml calmodulin and 100 U/ml creatine phosphokinase. The concentration of free Ca2+ ions was calculated as described previously (53).

[2] = system: aortae of miR-143/145 KO mice; assay: Affymetrix GeneChip mRNA expression analysis of aortae after chronic captopril or losartan
Description: as §1, with “For chronic ACE or AT1 inhibition drinking water of mice was supplemented with 600 μg/ml captopril (Sigma#C-8856) and 100 µg/ml losartan (Fluka#61188) for at least 3 weeks.” left out
Tissues were dissected from PBS perfused animals and total RNA was isolated using the Trizol method (Invitrogen). RNA quality was checked on the Agilent 2100 Bioanalyser using the RNA 6000 Nano Kit. For mRNA expression analysis the Affymetrix GeneChip Mouse Genome 430 2.0 Array was employed with the respective one-cycle target labelling protocol. Data were analysed by the RMA algorithm using the Affymetrix Expression Console. […] 507 probe sets were identified with p<0.05 and FC>1.5 or FC<0.666. For miRNA expression analysis 384 3′ C6 aminolinker DNA-oligonucleotides complementary to published miRNA (Sanger, miRBase) sequences were synthesised and spotted with eight replicates per array to Nexterion E slides. Probe labelling and hybridization followed the Agilent miRNA labelling protocol, but P-CTTTT-Alexa555 or P-CTTTTAlexa647 oligonucleotides (MWG-Biotech) were ligated to the miRNAs. Arrays were scanned and analysed with an Axon 4200B scanner and GenePix Pro 6.0. Normalisation and data analysis was performed using Acuity 4.0. For multiple tissue comparison, miRNA from tissues was labelled with the Alexa555 dye, miRNA from whole E15.5 embryos labelled with Alexa647 dye was used as a reference. Data were linear normalized to a log ratio of 1 for the ratio of medians of let-7a-g and let-7i signals. The log 2 ratio data were centered for the single miRNA expression signals (by subtracting the row mean from each value), log 2 ratio data are visualized. For Northern blot analysis 3 μg (aorta 1.5 μg) of total RNA were separated on a 15% Polyacrylamide-Urea gel (Invitrogen) and blotted on Hybond XL (Amersham). miR-145, miR-143 and U6 antisense oligonucleotides were labeled with γ-ATP and PNK (NEB) and purified using Micro Bio-Spin® 6 columns (Biorad). Hybridization was performed in Ultrahyb hybridization buffer (Ambion) at 30° C. over night. Blots were washed 2 times in 2×SSC/0.1% SDS at 25° C. (5 min) and at 42° C. (15 min). Signals were detected using a BAS-2500 imager (Fujifilm).

[3] = system: arteries of KO mice; assay: Morphological analysis of arteries after chronic treatment; details: 20 days treatment
Description: A 129S7AB2.2 genomic BAC clone (bMQ-446B20; Sanger) was used to generate the targeting vector. Recombination in SW102 cell was employed to replace the miR-143 to miR-145 genomic region by a galK cassette (45) that was amplified by the primers flanking premiR-143 to pre-miR-145 ([…] GCggcgcgcctcagcactgtcctgctcctt; […] ACggcgcgcctgttgacaattaatcatcggca). The genomic sequence was inserted via gap repair into a pKO targeting vector containing a DTA expression cassette and 450 bp homology arms for BAC recombination resulting in a vector containing 6.5 kb of sequence 5′ of miR-143 and 5.5 kb 3′ of miR-145 from genomic sequence […] to […]. The AscI restriction sites flanking the galK cassette were used to replace the galK by a floxed IRESIacZ-NeoR cassette. […]
Arteries were perfused using a PBS solution via the heart apex at 100 mmHg pressure for 2 min, followed by perfusion with 4% paraformaldehyde in PBS. […] Ultra-thin sections were stained with uranyl acetate and lead citrate, viewed and photographically recorded using a Philips CM 10 electron microscope. The phenotype of VSMC was determined ultrastructurally following criteria as previously reported (47). […] The phenotype of VSMC in each mouse was quantified in at least 300 cells per 3 arterial segments (minimum 100 μm) using consecutive transversal sections. […]

[4] = aorta, chronic oral treatment 20 days

With CCCCc1nc(Cl)c(CO)n1Cc1ccc(-c2ccccc2-c2nn[nH]n2)cc1 [losartan] the “phenylephrine induced contraction relative to K+ force” value ([1]; KO mice, losartan for 3 weeks) was 96 % of the K+ force, the “enhancement of phenylephrine induced contraction” value ([1]; KO mice, losartan for 3 weeks, 3 μM phenylephrine) was 214% and the “enhancement of phenylephrine induced contraction” value ([1]; KO mice, losartan for 3 weeks, 10 μM phenylephrine) was 57%. For the same compound, the phenylephrine-induced vasoconstriction ([1]; WT mice, losartan) was “did not affect”, the “contractility on phenylephrine stimulation” value ([1]; arterial rings from KO animals, losartan-treated vs. KO untreated) was “significant enhancement” and the “FC Acta1 (1427735_a_at), treated miR-143/145 KO vs. WT” value [2, 4] was 0.76. The “FC Arhgef17 (1433682_at), treated miR-143/145 KO vs. WT” value [2, 4] was 1.11, the “FC Cald1 (1424768_at), treated miR-143/145 KO vs. WT” value [2, 4] was 1.53 and the “FC Camk2g (1423942_a_at), treated miR-143/145 KO vs. WT” value [2, 4] was 1.17. For the same compound, the “FC Cap2 (1423222_at), treated miR-143/145 KO vs. WT” value [2, 4] was 1.36, the “FC Clcn3 (1433486_at), treated miR-143/145 KO vs. WT” value [2, 4] was 1.27 and the “FC Efemp1 (1427183_at), treated miR-143/145 KO vs. WT” value [2, 4] was 0.71. For the same compound, the “FC Itga3 (1455158_at), treated miR-143/145 KO vs. WT” value [2, 4] was 0.84, the “FC Krt8 (1420647_a_at), treated miR-143/145 KO vs. WT” value [2, 4] was 1.00 and the “FC Mc2r (1422926_at), treated miR-143/145 KO vs. WT” value [2, 4] was 0.70. For the same compound, the “FC Mylk (1425506_at), treated miR-143/145 KO vs. WT” value [2, 4] was 1.06, the “FC Mylpf (1448371_at), treated miR-143/145 KO vs. WT” value [2, 4] was 1.05 and the “FC Myoc (1450468_at), treated miR-143/145 KO vs. WT” value [2, 4] was 0.76. The “FC Neo1 (1440789_at), treated miR-143/145 KO vs. WT” value [2, 4] was 1.27, the “FC Npr3 (1435184_at), treated miR-143/145 KO vs. WT” value [2, 4] was 1.68 and the “FC Pde3b (1433694_at), treated miR-143/145 KO vs. WT” value [2, 4] was 0.87. The “FC Ppp2r1b (1419871_at), treated miR-143/145 KO vs. WT” value [2, 4] was 0.65, the “FC Prkg1 (1449876_at), treated miR-143/145 KO vs. WT” value [2, 4] was 1.16 and the “FC Rock1 (1460729_at), treated miR-143/145 KO vs. WT” value [2, 4] was 1.77. For the same compound, the “FC S100a8 (1419394_s_at), treated miR-143/145 KO vs. WT” value [2, 4] was 1.83, the “FC S100a9 (1448756_at), treated miR-143/145 KO vs. WT” value [2, 4] was 1.64 and the “FC Serca1 (1419312_at), treated miR-143/145 KO vs. WT” value [2, 4] was 0.82. The “FC Tnnc2 (1417464_at), treated miR-143/145 KO vs. WT” value [2, 4] was 1.51, the “FC Unc5c (1449522_at), treated miR-143/145 KO vs. WT” value [2, 4] was 0.80 and the “number of the 507 deregulated probe sets returned to normal (WT) levels” value ([2]; mutant mice, 3 weeks (20 days) oral application, p > 0.05 vs. WT, n = 3) was 220. For the same compound, the “significant morphological changes in arteries” value [3] was “not observed”.

— patent US20120190580A1, “TREATMENT OF PATIENTS AFTER STENT IMPLANTATION OR BALLOON DILATATION AND DRUG ELUTING STENTS” (MAX-PLANCK-GESELLSCHAFT ZUR FORDERUNG DER WISSENSCHAFTEN …, priority 2009, published 2012)
